Measured values reported in PubChem BioAssay (NCI).
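Dose response: 5 concentrations. Exposure: 48 h. Format: 96-well plates. Endpoint: linear interpolation; highest concentration if not reached. GI50 marks 50% less growth. TGI marks complete inhibition of growth.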

Experiments:
Test in all cases: NCI-60 cell line screen, 48 h
A549 NSCLC = test system: A549 NSCLC
HCT-15 colon = test system: HCT-15 colon
HOP-92 NSCLC = test system: HOP-92 NSCLC
HS 578T breast = test system: HS 578T breast
KM12 colon = test system: KM12 colon
MDA-MB-231 breast = test system: MDA-MB-231 breast
MDA-MB-435 = test system: MDA-MB-435
NCI-H460 lung = test system: NCI-H460 lung
OVCAR-4 ovarian = test system: OVCAR-4 ovarian
RPMI-8226 leukemia = test system: RPMI-8226 leukemia

Structure (SMILES)	TGI (A549 NSCLC) [µM]	TGI (HCT-15 colon) [µM]	TGI (HOP-92 NSCLC) [µM]	TGI (HS 578T breast) [µM]	TGI (KM12 colon) [µM]	TGI (MDA-MB-231 breast) [µM]	TGI (MDA-MB-435) [µM]	TGI (NCI-H460 lung) [µM]	TGI (OVCAR-4 ovarian) [µM]	TGI (RPMI-8226 leukemia) [µM]	GI50 (A549 NSCLC) [nM]	GI50 (HCT-15 colon) [nM]	GI50 (HOP-92 NSCLC) [nM]	GI50 (HS 578T breast) [nM]	GI50 (KM12 colon) [nM]	GI50 (MDA-MB-231 breast) [nM]	GI50 (MDA-MB-435) [nM]	GI50 (NCI-H460 lung) [nM]	GI50 (OVCAR-4 ovarian) [nM]	GI50 (RPMI-8226 leukemia) [nM]
CCN(CC)c1ccc(NC(=S)NN(C)C)cc1	> 10	> 10	> 10	> 10	> 10	> 10	> 10	> 10	> 10	> 10	–	–	–	–	–	–	–	–	–	–
CN(C)CCCNc1cc(O)c2c(c1O)C(=O)c1ccccc1C2=O	23.9	21	29.6	50.2	21.7	27.6	29.2	19.4	25.4	29.8	–	–	–	–	–	–	–	–	–	–
C=C1C[C@@H]2CC[C@@]34C[C@H]5O[C@H]6[C@@H](O3)[C@H]3O[C@H](CC[C@@H]3O[C@H]6[C@H]5O4)CC(=O)C[C@@H]3[C@@H](OC)[C@@H](C[C@H](O)CN)O[C@H]3C[C@H]3O[C@@H](CC[C@@H]1O2)C[C@@H](C)C3=C	> 1	> 0.76	> 1	> 0.187	0.0104	0.087	0.000274	0.161	> 1	0.0344	–	–	–	–	–	–	–	–	–	–
Cc1ccc2c(c1C)CC1(Cc3c(C)ccc(C)c3C1=O)C2=O (stereo not given)	> 100	> 100	> 100	> 100	> 100	> 100	> 100	> 100	> 100	> 100	–	–	–	–	–	–	–	–	–	–
CC1(C)OC[C@@H](C[C@H](O)COCc2ccccc2)O1	> 100	> 100	> 100	> 100	> 100	> 100	> 100	> 100	> 100	> 100	–	–	–	–	–	–	–	–	–	–
O=C1CS/C(=N/N=C/c2cn(Cc3ccc(Cl)cc3Cl)c3ccccc23)N1	> 100	> 100	> 100	83.6	> 100	48	> 100	> 100	> 100	> 100	–	–	–	–	–	–	–	–	–	–
CCN(CCCCCCCCCCN1CC(=O)N(CCCCCCCCCCN(CC)Cc2ccccc2OC)CC1=O)Cc1ccccc1OC	4.54	5.34	2.34	4.26	2.24	3.61	2.96	3.62	6.59	3.1	1650	1550	359	1350	1030	1560	1310	1540	1770	812
N#Cc1ccc(-c2nc(C#N)c(N)o2)cc1	> 10	> 10	> 10	> 10	> 10	> 10	> 10	> 10	> 10	> 10	–	–	–	–	–	–	–	–	–	–
CC(C)=CCC12Cc3ccc(O)cc3C(C(C)CN1)C2C (stereo not given)	> 100	> 100	> 100	> 100	> 100	> 100	> 100	> 100	> 100	> 100	–	–	–	–	–	–	–	–	–	–
CCCCCCc1cc2cc(-c3csc(-c4ccc(OC)cc4)n3)c(=O)oc2cc1O	32.8	46.8	16.2	60.7	68.2	25.3	18.4	41	7.39	> 100	–	–	–	–	–	–	–	–	–	–
COc1ccc(OC/C(N=Cc2ccncc2)=N/NC(=O)c2ccncc2)cc1	> 100	> 100	96.4	> 100	> 100	> 100	62.4	> 100	> 100	> 100	–	–	–	–	–	–	–	–	–	–
COc1cc2c3c(cc(Cl)nc3c1OC)C(=O)C(=O)N2	38.6	40.8	3.44	> 100	30.3	3.83	3.37	42.7	3.05	> 100	–	–	–	–	–	–	–	–	–	–
C=C(C)[C@H]1CC(=O)/C(C)=C\CC/C(C)=C/CC[C@@]2(C)O[C@@H]2C1	34.5	> 100	> 100	> 100	44.3	> 100	35	33.1	75.3	52.1	–	–	–	–	–	–	–	–	–	–
O=C(/C=C\Nc1ccccc1O)C(F)(F)F	> 100	> 100	> 100	> 100	> 100	> 100	> 100	> 100	> 100	> 100	–	–	–	–	–	–	–	–	–	–
O=[N+]([O-])/C(Cl)=C(/C(Cl)=C(Cl)Cl)N1CCCCC1	28.5	19.1	30.2	64.4	27.6	41.6	20.8	43	27.5	18.2	–	–	–	–	–	–	–	–	–	–
Clc1cc(C(c2cc(Cl)sc2Cl)c2cc(Cl)sc2Cl)c(Cl)s1	> 100	> 100	> 100	> 100	> 100	> 100	> 100	> 100	> 100	> 100	–	–	–	–	–	–	–	–	–	–
O=c1ccn(-c2ccccn2)c(=O)n1-c1ccccn1	> 100	> 100	> 100	> 100	> 100	> 100	> 100	> 100	> 100	> 100	–	–	–	–	–	–	–	–	–	–
